For data set [1] the following is noted: Crystal; visual observation.
The nature of data set [2]: Molar enthalpy of transition or fusion. The note with it: Crystal; DSC.

Structures are written as SMILES. Numbers after ± are expanded uncertainties.

Take `CCCCCC[n+]1cccc(C)c1.Cc1ccc(S(=O)(=O)[O-])cc1` [1-hexyl-3-methylpyridinium 4-methylbenzenesulfonate]: the Normal melting temperature in data set [1] turned out to be 56.2 ± 0.4 °C. Further, in data set [2], the “Molar enthalpy of transition or fusion” value worked out at 2.41 ± 0.0813 kcal/mol.
